Test results taken from patent US12428666B2, “Compositions and methods related to kethoxal derivatives” (The University of Chicago, priority 2018, dated 2025).
Entries after “also recorded” stand apart in the source; their conditions may differ.

Columns and labels:
Pol II = experiment: ssDNA-seq after Pol II inhibitor treatment; format: cell-based, human; conditions: for ssDNA peak number: 2 h, control more than 43,000; for distribution of ssDNA-seq peaks on gene coding regions: after inhibitor treatment vs control
Procedure: N3-kethoxal enables genome-wide single-stranded DNA mapping (ssDNA-seq). Taking advantage of the sensitivity and the selectivity of N3-kethoxal towards single-stranded nucleic acids, the inventors first applied N3-kethoxal to map single-stranded regions of the genome, which has not been previously achieved. Human embryonic kidney (HEK) cells were cultured in N3-kethoxal-containing medium for 10 min to facilitate labelling before harvested. Genomic DNA was then purified and subjected to biotinylation reaction through “click” chemistry. Biotinylated DNA was purified and fragmented, followed by immunoprecipitation with streptavidin-coated beads. Enriched DNA and their corresponding inputs was used to make libraries, which were then sequenced and aligned.
ssDNA is performed by: (1) Prepare labeling medium by adding 5 μL pure N3-kethoxal to 5 mL pre-warmed cell culture medium for each 10 cm dish. (2) Incubate cells in the labeling medium for 10 min at 37° C., 5% CO2. (3) For transcription inhibition experiments, cells were treated for 2 h under 100 μM DRB or 1 μM triptolide before incubated in N3-kethoxal-containing medium. (4) Harvest cells after the 10 min incubation, isolate total DNA from cells by PureLink genomic DNA mini kit according to the manufacturer's protocol. (5) Suspend 5 μg total DNA in 85 μL H2O, then add 10 μL 10×PBS and 5 μL 20 mM DBCO-PEG4-biotin (DMSO solution), incubate the mixture at 37° C. for 2 h. (6) Add 5 μL RNase A to the reaction mixture, incubate the mixture at 37° C. for another 15 min. (7) Recover DNA from the reaction mixture by DNA Clean & Concentrator kit according to the manufacturer's protocol.

guanine = experiment: Reaction of N3-kethoxal with RNA nucleic bases and RNA oligos (HPLC, MALDI-TOF); format: biochemical; conditions: 12 mer RNA oligo with 4 guanines
Procedure: The reaction of N3-kethoxal and RNA was generally performed with the following protocol: 100 pmol RNA oligo and 1 μmol N3-kethoxal was incubated in total 10 μL solution in PBS buffer at 37° C. for 10 mins. […] The purified labelled RNA can be used for further studies such as mass spectrometry, gel electrophoresis and copper-free click reaction with biotin-DBCO.
MALDI-TOF-MS analysis of N3-kethoxal labelled RNA oligo. […] Meanwhile the buffer exchange occurred from PBS buffer to tris buffer that can be directly used in MALDI-TOF-MS experiment without extra desalt step. One microliter of product solution was mixed with one microliter matrix which include 8:1 volume ratio of 2′4′6′-trihydroxyacetophenone (THAP, 10 mg/mL in 50% CH3CN/H2O):ammonium citrate (50 mg/mL in H2O). Then the mixture was spotted on the MALDI sample plate, dried and analyzed by Bruker Ultraflextreme MALDI-TOF-TOF Mass Spectrometers.
The product of N3-kethoxal with for RNA nucleic bases was analyzed using LC-6AD (Shimadzu, Japan) HPLC instrument, which equipped with an Inertsil ODS-SP column ([…], 250×4.6 mm) (GL Science Inc. Japan). The phase A (100 mM TEAA buffer, pH=7.0) and phase B (CH3CN) were used as eluents with a flow rate of 1 mL/min at 35° C. (B conc.: 5-5-30%/0-5-30 min).

[1] = test system: mRNA secondary structures in live cells; experiment: KARRI after translation inhibitor treatment; format: cell-based; conditions: 100 μg/mL cycloheximide or 3 μg/mL harringtonine, 37° C., 10 min
Procedure: KARRI is performed by: (1) Suspend live cells in 1% formaldehyde solution at 1×10^6/mL and incubate at room temperature for 10 min with gentle rotate. Then quench this reaction by adding glycine to a final concentration of 125 mM and rotate the mixture at room temperature for 5 min. For translation inhibitor treatment, cells were treated with 100 μg/mL cycloheximide or 3 μg/mL harringtonine at 37° C. for 10 min. (2) Collect and take 2×10^6 cells. Dilute N3-Kethoxal by 1:5 using DMSO. Make a labeling buffer by adding 10 μL N3-Kethoxal into 290 μL lysis buffer (10 mM Tris-HCl pH 8.0, 10 mM NaCl, 0.2 IGEPAL CA630) with 3 μL 100× proteinase inhibitor cocktail. (3) Suspend cells in labeling buffer and rotate at room temperature for 30 min, then centrifuge at 2500 g for 5 min at 4° C. to collect cells. (4) Wash cell pellets with 500 μL ice-cold lysis buffer for 3 times. (5) Suspend the pellet in 500 μL MeOH containing 10 μM dendrimers, rotate for 1 h at 37° C. Then centrifuge at 2500 g for 5 min at 4° C. to collect cells. (6) Wash cell pellet twice with 500 μL ice-cold lysis buffer. (7) Resuspend cells in 385 μL lysis buffer, add 50 μL 10% SDS, 30 μL proteinase K, 10 μL RNase inhibitor, 25 μL 500 mM K3BO3, shake at 65° C. for 2 h. (8) Add 500 μL phenol-chloroform to extract RNA and purify RNA by EtOH precipitation. […]

Row | SMILES | distribution of ssDNA-seq peaks on gene coding regions (Pol II) | effect on in vivo RNA secondary structures (KARRI) [1] | further results
1 | OC[C@H]1O[C@@H](n2cnc3cc(Cl)c(Cl)cc32)[C@H](O)[C@@H]1O [DRB, 5,6-dichloro-1-β-D-ribofuranosylbenzimidazole] | Stronger peaks were observed at TSS while peaks on gene body and TES were eliminated |  | ssDNA peak number (Pol II; 100 μM DRB): around 16,000
2 | Cc1ncccc1C(=O)n1ccnc1 [NAI, reference compound] |  |  | labelling of RNA oligo (MALDI-TOF molecular weight of product) (guanine): some oligoes were only reacted by one NAI and some were labelled by two or three
3 | CC(C)[C@]12O[C@H]1[C@@H]1O[C@]13[C@]1(O[C@H]1C[C@H]1C4=C(CC[C@@]13C)C(=O)OC4)[C@@H]2O [Triptolide, triptolide] | most peaks on gene coding regions disappeared |  | ssDNA peak number (Pol II; 1 μM triptolide): ~3,700
4 | C[C@@H]1C[C@@H]([C@H](O)CC2CC(=O)NC(=O)C2)C(=O)[C@@H](C)C1 [cycloheximide] |  | undermined in vivo-specific structures and increased in vitro features | 
5 | COC(=O)C[C@](O)(CCC(C)(C)O)C(=O)O[C@@H]1C(OC)=C[C@]23CCCN2CCc2cc4c(cc2[C@H]13)OCO4 [harringtonine] |  | undermined in vivo-specific structures and increased in vitro features; also recorded: in vivo-specific structures were undermined while some in vitro-specific features showed up | 
